# Assay results from patent US20100204265A1 (priority 2009, published 2010).
# Test system: ET (Huh-lucubineo-ET) cell line harboring I389luc-ubi-neo/NS3-3′/ET HCV replicon
# Experiment: Replicon assay (HCV replicon, luciferase readout)
# Assay type: cell-based
# Settings: Hepatitis C virus
# Summary of the method: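 Compounds at 10-point 2-fold dilutions (overall 0.1 nM to […], 0.5% DMSO) were applied to ET cells carrying a luciferase-neo HCV replicon, seeded a day earlier. After 48-72 hours, luciferase-based % inhibition was fitted with a Hill equation for EC50, and parallel WST-1 readings gave TC50.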
row,Structure (SMILES),EC50
1,"COC(=O)C(NC(=O)c1cn2cc(-c3ccoc3)cc(C(F)(F)F)c2n1)C(C)C (centres unmarked) [Compound 256, 2-[(6-Furan-3-yl-8-trifluoromethyl-imidazo[1,2-a]pyridine-2-carbonyl)-amino]-3-methyl-butyric acid methyl ester]",> 50 µM
2,"COC(=O)C(CCCCNC(=O)OC(C)(C)C)NC(=O)c1cn2cc(-c3ccoc3)cc(C(F)(F)F)c2n1 (centres unmarked) [Compound 257, 6-tert-Butoxycarbonylamino-2-[(6-furan-3-yl-8-trifluoromethyl-imidazo[1,2-a]pyridine-2-carbonyl)-amino]-hexanoic acid methyl ester]",> 50 µM
3,"NCCc1cn2cc(-c3ccoc3)cc(C(F)(F)F)c2n1 [Compound 258, 2-(6-Furan-3-yl-8-trifluoromethyl-imidazo[1,2-a]pyridin-2-yl)-ethylamine]",> 50 µM
4,"CC(=O)NC(CO)C(=O)NCc1cn2cc(-c3ccoc3)cc(C(F)(F)F)c2n1 (centres unmarked) [Compound 259, 2-Acetylamino-N-(6-furan-3-yl-8-trifluoromethyl-imidazo[1,2-a]pyridin-2-ylmethyl)-3-hydroxy-propionamide]",> 50 µM
5,"CC(=O)NC(Cc1ccccc1)C(=O)NCc1cn2cc(-c3ccoc3)cc(C(F)(F)F)c2n1 (centres unmarked) [Compound 260, 2-Acetylamino-N-(6-furan-3-yl-8-trifluoromethyl-imidazo[1,2-a]pyridin-2-ylmethyl)-3-phenyl-propionamide]",> 50 µM
6,"CC(=O)NC(C(=O)NCc1cn2cc(-c3ccoc3)cc(C(F)(F)F)c2n1)C(C)C (centres unmarked) [Compound 261, 2-Acetylamino-N-(6-furan-3-yl-8-trifluoromethyl-imidazo[1,2-a]pyridin-2-ylmethyl)-3-methyl-butyramide]",> 50 µM
7,"CC(C(=O)NCc1cn2cc(-c3ccoc3)cc(C(F)(F)F)c2n1)N(C)C (centres unmarked) [Compound 262, 2-Dimethylamino-N-(6-furan-3-yl-8-trifluoromethyl-imidazo[1,2-a]pyridin-2-ylmethyl)-propionamide]",> 50 µM
8,"O=C(NCCc1cn2cc(-c3ccoc3)cc(C(F)(F)F)c2n1)c1cccs1 [Compound 263, Thiophene-2-carboxylic acid [2-(6-furan-3-yl-8-trifluoromethyl-imidazo[1,2-a]pyridin-2-yl)-ethyl]-amide]",> 50 µM
9,"O=C(O)CNC(=O)c1cn2cc(-c3ccoc3)cc(C(F)(F)F)c2n1 [Compound 264, [(6-Furan-3-yl-8-trifluoromethyl-imidazo[1,2-a]pyridine-2-carbonyl)-amino]-acetic acid]",> 50 µM
10,"CC(NC(=O)c1cn2cc(-c3ccoc3)cc(C(F)(F)F)c2n1)C(=O)O (centres unmarked) [Compound 265, 2-[(6-Furan-3-yl-8-trifluoromethyl-imidazo[1,2-a]pyridine-2-carbonyl)-amino]-propionic acid]",> 50 µM
11,"CSCCC(NC(=O)c1cn2cc(-c3ccoc3)cc(C(F)(F)F)c2n1)C(=O)O (centres unmarked) [Compound 266, 2-[(6-Furan-3-yl-8-trifluoromethyl-imidazo[1,2-a]pyridine-2-carbonyl)-amino]-4-methylsulfanyl-butyric acid]",> 50 µM
12,"O=C(NC(CO)C(=O)O)c1cn2cc(-c3ccoc3)cc(C(F)(F)F)c2n1 (centres unmarked) [Compound 267, 2-[(6-Furan-3-yl-8-trifluoromethyl-imidazo[1,2-a]pyridine-2-carbonyl)-amino]-3-hydroxy-propionic acid]",> 50 µM
13,"O=C(c1nc2c(C(F)(F)F)cc(-c3ccoc3)cn2c1Cl)N1CCC(S(=O)(=O)c2ccccc2)CC1 [Compound 268, (4-Benzenesulfonyl-piperidin-1-yl)-(3-chloro-6-furan-3-yl-8-trifluoromethyl-imidazo[1,2-a]pyridin-2-yl)-methanone]",> 50 µM
14,"CC(O)C(NC(=O)c1cn2cc(-c3ccoc3)cc(C(F)(F)F)c2n1)C(=O)O (centres unmarked) [Compound 269, 2-[(6-Furan-3-yl-8-trifluoromethyl-imidazo[1,2-a]pyridine-2-carbonyl)-amino]-3-hydroxy-butyric acid]",> 50 µM
15,"CC(C)CC(NC(=O)c1cn2cc(-c3ccoc3)cc(C(F)(F)F)c2n1)C(=O)O (centres unmarked) [Compound 270, 2-[(6-Furan-3-yl-8-trifluoromethyl-imidazo[1,2-a]pyridine-2-carbonyl)-amino]-4-methyl-pentanoic acid]",> 50 µM
16,"O=C(NC(C(=O)O)c1ccccc1)c1cn2cc(-c3ccoc3)cc(C(F)(F)F)c2n1 (centres unmarked) [Compound 271, [(6-Furan-3-yl-8-trifluoromethyl-imidazo[1,2-a]pyridine-2-carbonyl)-amino]-phenyl-acetic acid]",> 50 µM
17,"CC(C)C(NC(=O)c1cn2cc(-c3ccoc3)cc(C(F)(F)F)c2n1)C(=O)O (centres unmarked) [Compound 272, 2-[(6-Furan-3-yl-8-trifluoromethyl-imidazo[1,2-a]pyridine-2-carbonyl)-amino]-3-methyl-butyric acid]",> 50 µM
18,"CC(C)(C)C(NC(=O)c1cn2cc(-c3ccoc3)cc(C(F)(F)F)c2n1)C(=O)O (centres unmarked) [Compound 273, 2-[(6-Furan-3-yl-8-trifluoromethyl-imidazo[1,2-a]pyridine-2-carbonyl)-amino]-3,3-dimethyl-butyric acid]",> 50 µM

row,Structure (SMILES),EC50
1,"O=C(Cc1cccs1)NCCc1cn2cc(-c3ccoc3)cc(C(F)(F)F)c2n1 [Compound 274, N-[2-(6-Furan-3-yl-8-trifluoromethyl-imidazo[1,2-a]pyridin-2-yl)-ethyl]-2-thiophen-2-yl-acetamide]",> 50 µM
2,"O=C(NCCc1cn2cc(-c3ccoc3)cc(C(F)(F)F)c2n1)C1CC1 [Compound 275, Cyclopropanecarboxylic acid [2-(6-furan-3-yl-8-trifluoromethyl-imidazo[1,2-a]pyridin-2-yl)-ethyl]-amide]",> 50 µM
3,"COC(=O)CCNC(=O)c1cn2cc(-c3ccoc3)cc(C(F)(F)F)c2n1 [Compound 276, 3-[(6-Furan-3-yl-8-trifluoromethyl-imidazo[1,2-a]pyridine-2-carbonyl)-amino]-propionic acid methyl ester]",> 50 µM
4,"CC(NC(=O)c1cn2cc(-c3ccoc3)cc(C(F)(F)F)c2n1)C(N)=O (centres unmarked) [Compound 277, 6-Furan-3-yl-8-trifluoromethyl-imidazo[1,2-a]pyridine-2-carboxylic acid (1-carbamoyl-ethyl)-amide]",> 50 µM
5,"CC(C)C(NC(=O)c1cn2cc(-c3ccoc3)cc(C(F)(F)F)c2n1)C(N)=O (centres unmarked) [Compound 278, 6-Furan-3-yl-8-trifluoromethyl-imidazo[1,2-a]pyridine-2-carboxylic acid (1-carbamoyl-2-methyl-propyl)-amide]",> 50 µM
6,"NC(=O)C(CO)NC(=O)c1cn2cc(-c3ccoc3)cc(C(F)(F)F)c2n1 (centres unmarked) [Compound 279, 6-Furan-3-yl-8-trifluoromethyl-imidazo[1,2-a]pyridine-2-carboxylic acid (1-carbamoyl-2-hydroxy-ethyl)-amide]",> 50 µM
7,"NC(=O)C1CCCN1C(=O)c1cn2cc(-c3ccoc3)cc(C(F)(F)F)c2n1 (centres unmarked) [Compound 280, 1-(6-Furan-3-yl-8-trifluoromethyl-imidazo[1,2-a]pyridine-2-carbonyl)-pyrrolidine-2-carboxylic acid amide]",> 50 µM
8,"CN(C)C(=O)C1CCCN1C(=O)c1cn2cc(-c3ccoc3)cc(C(F)(F)F)c2n1 (centres unmarked) [Compound 281, 1-(6-Furan-3-yl-8-trifluoromethyl-imidazo[1,2-a]pyridine-2-carbonyl)-pyrrolidine-2-carboxylic acid dimethylamide]",> 50 µM
9,"CC(O)C(NC(=O)c1cn2cc(-c3ccoc3)cc(C(F)(F)F)c2n1)C(N)=O (centres unmarked) [Compound 282, 6-Furan-3-yl-8-trifluoromethyl-imidazo[1,2-a]pyridine-2-carboxylic acid (1-carbamoyl-2-hydroxy-propyl)-amide]",> 50 µM
10,"O=C(NCCc1cn2cc(-c3ccoc3)cc(C(F)(F)F)c2n1)Nc1ccccc1 [Compound 283, 1-[2-(6-Furan-3-yl-8-trifluoromethyl-imidazo[1,2-a]pyridin-2-yl)-ethyl]-3-phenyl-urea]",> 50 µM
11,"CC(=O)N1CCCC1C(=O)NCc1cn2cc(-c3ccoc3)cc(C(F)(F)F)c2n1 (centres unmarked) [Compound 284, 1-Acetyl-pyrrolidine-2-carboxylic acid (6-furan-3-yl-8-trifluoromethyl-imidazo[1,2-a]pyridin-2-ylmethyl)-amide]",> 50 µM
12,"O=C(O)CCNC(=O)c1cn2cc(-c3ccoc3)cc(C(F)(F)F)c2n1 [Compound 285, 3-[(6-Furan-3-yl-8-trifluoromethyl-imidazo[1,2-a]pyridine-2-carbonyl)-amino]-propionic acid]",> 50 µM
13,"O=C(NC(Cc1ccccc1)C(=O)O)c1cn2cc(-c3ccoc3)cc(C(F)(F)F)c2n1 (centres unmarked) [Compound 286, 2-[(6-Furan-3-yl-8-trifluoromethyl-imidazo[1,2-a]pyridine-2-carbonyl)-amino]-3-phenyl-propionic acid]",> 50 µM
14,"CSCCC(NC(C)=O)C(=O)NCc1cn2cc(-c3ccoc3)cc(C(F)(F)F)c2n1 (centres unmarked) [Compound 287, 2-Acetylamino-N-(6-furan-3-yl-8-trifluoromethyl-imidazo[1,2-a]pyridin-2-ylmethyl)-4-methylsulfanyl-butyramide]",> 50 µM
15,"CC(=O)N[C@H](C(=O)NCc1cn2cc(-c3ccoc3)cc(C(F)(F)F)c2n1)C(C)C [Compound 288, 2-Acetylamino-N-(6-furan-3-yl-8-trifluoromethyl-imidazo[1,2-a]pyridin-2-ylmethyl)-3-methyl-butyramide]",> 50 µM
16,"CC(=O)NC(C(=O)NCc1cn2cc(-c3ccoc3)cc(C(F)(F)F)c2n1)C(C)O (centres unmarked) [Compound 289, 2-Acetylamino-N-(6-furan-3-yl-8-trifluoromethyl-imidazo[1,2-a]pyridin-2-ylmethyl)-3-hydroxy-butyramide]",> 50 µM
17,"COC(=O)CNC(=O)Cc1cn2cc(-c3ccoc3)cc(C(F)(F)F)c2n1 [Compound 290, [2-(6-Furan-3-yl-8-trifluoromethyl-imidazo[1,2-a]pyridin-2-yl)-acetylamino]-acetic acid methyl ester]",> 50 µM
